Earlier results as cited in PMC6784077 (Viruses, 2019).

enfuvirtide
t1/2: ~ 1.5 h
